Here are results for one substance from patent US12616751B2, “Photosensitizing antibody-fluorophore conjugates” (The USA, as represented by the Secretary, Department of …, priority 2010, dated 2026).

Several values for one entry are separate records, joined by “and”; a condition that tells them apart may be missing. Equal values may be shown once.

In data set [1] the test system is MDA-MB-468 cells. As to the kind of experiment: In vitro PIT, microscopy before and after. It is filed as cell-based. How it is done:
For photoimmunotherapy (PIT), cells were seeded on 35 mm cover glass-bottomed dishes and incubated 24 hours. […] Culture medium was replaced with phenol red-free medium after washing with phosphate buffered saline (PBS). Cells were irradiated with light at 670 nm to 690 nm using a red light emitting diode (LED; FluorVivo; INDEC Systems Inc., Capitola, Calif.) with a power density of 2.6 mW cm^−2 as measured with optical power meter (PM 100, Thorlabs, Newton, N.J.). Cell viability was assessed 1 hour after treatment with LIVE/DEAD® Fixable Green Dead Cell Stain Kit (Invitrogen). After the treatment, cells were trypsinized and washed with PBS. Green fluorescent reactive dye was added in the cell suspension and incubated at room temperature for 30 minutes. Cells were then analyzed on flow cytometer (FACS Calibur, BD BioSciences, San Jose, Calif.).
This example describes additional results showing that the disclosed antibody-IR700 compounds selectively kill cells that express the appropriate protein. The photoimmunotherapy (PIT) methods are described in Example 2.

Data set [2] has as its system A431 cells. It is filed as cell-based. How it is done:
EGFR-expressing A431 cells were used as the target HER1+ cells. […] Cells were grown in RPMI 1640 supplemented with 10% fetal bovine serum and 1% penicillin/streptomycin in tissue culture flasks in a humidified incubator at 37° C. in an atmosphere of 95% air and 5% carbon dioxide. A431 or Balb/3T3/DsRed cells were seeded on cover glass-bottomed dishes and incubated for 24 hours. Pan-IR700 was added to the culture medium at 10 μg/mL and incubated either for 1 hour on ice or 6 hours at 37° C., then cells were washed with PBS. Culture medium was replaced with phenol red-free medium after washing with phosphate buffered saline (PBS).
PIT was performed as described in Examples 2 and 3.

Data set [3] relates to A431 tumors. As to the kind of experiment: In vivo FLT imaging after PIT. More on the design: species or system mice. How it is done: Reagents. […] All other chemicals used were of reagent grade. […] Then the mixture was purified with a Sephadex G50 column (PD-10; GE Healthcare). The protein concentrations were determined with Coomassie Plus protein assay kit (Pierce Biotechnology) by measuring light absorption at 595 nm (8453 Value System; Agilent Technologies). […] The number of IR700 per antibody was approximately 4 for the 1:4.5 reaction conditions. The addition of 0.4% SDS to the sample dissociated the fluorophores from each other, effectively causing dequenching. Quenching efficiency (QE) for a particular conjugation is defined as the fluorescence intensity with SDS divided by fluorescence intensity without SDS. […] Pan-1R700 was kept at 4° C. in the refrigerator as a stock solution. Fluorescence lifetime measurements. FLT experiments were performed with the eXplore OptixTm-MX2 system (ART Advanced Research Technologies, Inc.) (Hutchinson et al., Biophys J 68:1574-82, 1995; Ma et al., Appl Opt 46:1650-7, 2007). A fixed pulsed laser diode was used as an excitation source at a wavelength of 670 nm. Region of interest (ROI) measurements with a spot size of 1.5 mm were selected at the image plane. […] Lifetime analysis was performed by using the ART OptiView (ART Advanced Research Technologies, Inc.). Lifetime values and lifetime mapping were calculated to fit fluorescence temporal point-spread functions (TPSFs) as single-exponential models with the Fit TPSF tool. Photoimmunotherapy for in vitro and in vivo models. PIT was performed with a red light-emitting diode (LED) light at 680 to 700 nm wavelength (Tech-LED, Marubeni America Co.) (Mitsunaga et al., Bioconjug Chem. 23:604-9, 2012). Power densities were measured with an optical power meter (PM 100, Thorlabs). Determination of FLT for Pan-IR700. Samples of Pan-IR700 at concentrations of 2.5, 5, 20, 40 pg/mL were prepared by dilution with PBS. The fluorescence intensities and lifetimes of each sample were determined using the Optix MX2 system at room temperature within a 1.7 ml centrifuge tube. To investigate the effect of PIT using Pan-1R700, the FLT of each sample at the concentration of 50 pg/mL was measured after irradiating the samples at a PIT dose of 0, 2, 4, 8, 15, 30 J/cm2. Cell line. […] The cell line was grown in RPMI 1640 (Life Technologies) containing 10% fetal bovine serum (Life Technologies), 0.03% L-glutamine, 100 units/mL penicillin, and 100 μg/mL streptomycin in 5% CO2 at 37° C. Cell pellet FLT studies A431. Cells were plated on […] cell culture flasks and incubated until confluent. Then Pan-IR700 conjugate was added to the media (1 pg/mL), and cells were incubated for 24 h at 37° C. Upon completion of incubation, cells were removed from the flasks, and centrifuged to obtain pellets. The resulting cell pellets were washed with PBS×3 and placed in 1.7 mL centrifuge tubes. The fluorescence intensities and lifetimes of each sample were then obtained. […] After that, these pellets were gently washed with PBS×1 and fluorescence intensity and lifetime images were obtained. To detect the antigen specific localization of IR700 and to confirm the morphological changes of A431 cells before and after PIT, fluorescence microscopy was performed using Olympus BX61 microscope (Olympus America) equipped with the following filters: a 590-650 nm excitation filter, a 665-740 nm band pass emission filter. […]

As for “Pan-IR700: Panitumumab (anti-human EGFR IgG2 MAb) conjugated to IR700; about 3 to 4 IR700 per antibody”, the “cell killing by PIT (microscopy)” value in data set [1] and in data set [2] (FIG. 8) was “specifically killed” in each case. Besides, the “cytotoxicity without excitation light” value in data set [2] was “no significant cytotoxicity”. In addition, the “cell death after irradiation” value in data set [2] (0.5 to 2 J cm^−2) is on record as “rapid cell death in a dose-dependent manner”. For the same substance, the “target-specific phototoxicity in co-culture” value in data set [2] (co-cultured with Balb/3T3/DsRed (HER1 negative) cells) is listed as “Target-specific phototoxicity was also confirmed”. The “FLT shortening compared with untreated control” value in data set [3] (10 J/cm^2, 48 hours after PIT) turned out to be 7.7%. Moreover, the “FLT immediately after PIT, compared with no treatment controls” value in data set [3] (30 J/cm^2) was 61.5+/−5.1% and 61.5 ± 15.1%; in data set [3] (50 J/cm^2), 69.1+/−10.9%. Besides, the “FLT immediately after PIT, of untreated tumors in the same mouse” value in data set [3] (30 J/cm^2) is on record as 61.5%+/−5.05; in data set [3] (50 J/cm^2), 69.0%+110.92.
